The subject of one experiment is PARG in HeLa cell line. Put plainly: PARG cell assay (PAR chain immunofluorescence after MMS). Particulars: HeLa cells. The experiment is classed as cell-based. The protocol:
This method is based on the detection of endogenous levels of poly (ADP) ribose chains present in the nucleus of HeLa cell line using indirect immunofluorescence. MMS stimulation increases PAR chains for up to 25 mins. After that point, PARG is active and breaks down the PAR chains, until by one hour after stimulation no PAR chains are detectable. Inhibition of PARG maintains PAR chains.
Briefly, following compound treatment and treatment with the DNA damaging agent methylmethanesulfonate (MMS), the cell monolayer is fixed, then permeabilised and incubated with a mouse monoclonal antibody raised against multimers of poly(ADP) ribose.
At the end of the 1 h dosing period, MMS was added to duplicates at a final concentration of 50 μg/mL, for a further hour.
Media was tipped off and the cells fixed with 50 μL ice-cold 95% MetOH/PBS for 15 mins at −20° C. Following a PBS wash, 50 μL PBS/0.1% Triton was added to the cells for 20 mins. Following another PBS wash, anti-PAR antibody (Calbiochem AM80) was diluted 1:4000 in a buffer (PBS+0.5% FBS+0.05% Tween20) and added to the cells and incubated overnight at 4° C.
Cells were washed three times with PBS and the plate sealed with a light-proof seal.

For a further experiment, the target named is Human Full Length PARG (Homo sapiens (Human), UniProt Q86W56). Put plainly: PARG enzyme assay (TR-FRET). It counts as biochemical. A general note: In TR-FRET formats the signal depends on donor and acceptor labels being close together.
[1] abbreviates: Homo sapiens, MMS treatment, read-out: PARG Cell IC50.
Setting [2] is: MMS treatment, read-out: PARG Cell IC50.
Setting [3] is: MMS 50 μg/mL, read-out: PARG Cell IC50 Geomean.
Where [4] appears, read: read-out: PARG Biochem IC50 Geomean.
Setting [5] is: Homo sapiens, MMS 50 μg/mL, read-out: PARG Cell IC50 Geomean.

pIC50: −log10 of the molar value. Like-named read-outs stand apart in the source and are kept apart here.

What is called pIC50 is −log10 of the IC50, conventionally taken in molar units.

Human Full Length PARG, sequence (Q86W56 whole entry): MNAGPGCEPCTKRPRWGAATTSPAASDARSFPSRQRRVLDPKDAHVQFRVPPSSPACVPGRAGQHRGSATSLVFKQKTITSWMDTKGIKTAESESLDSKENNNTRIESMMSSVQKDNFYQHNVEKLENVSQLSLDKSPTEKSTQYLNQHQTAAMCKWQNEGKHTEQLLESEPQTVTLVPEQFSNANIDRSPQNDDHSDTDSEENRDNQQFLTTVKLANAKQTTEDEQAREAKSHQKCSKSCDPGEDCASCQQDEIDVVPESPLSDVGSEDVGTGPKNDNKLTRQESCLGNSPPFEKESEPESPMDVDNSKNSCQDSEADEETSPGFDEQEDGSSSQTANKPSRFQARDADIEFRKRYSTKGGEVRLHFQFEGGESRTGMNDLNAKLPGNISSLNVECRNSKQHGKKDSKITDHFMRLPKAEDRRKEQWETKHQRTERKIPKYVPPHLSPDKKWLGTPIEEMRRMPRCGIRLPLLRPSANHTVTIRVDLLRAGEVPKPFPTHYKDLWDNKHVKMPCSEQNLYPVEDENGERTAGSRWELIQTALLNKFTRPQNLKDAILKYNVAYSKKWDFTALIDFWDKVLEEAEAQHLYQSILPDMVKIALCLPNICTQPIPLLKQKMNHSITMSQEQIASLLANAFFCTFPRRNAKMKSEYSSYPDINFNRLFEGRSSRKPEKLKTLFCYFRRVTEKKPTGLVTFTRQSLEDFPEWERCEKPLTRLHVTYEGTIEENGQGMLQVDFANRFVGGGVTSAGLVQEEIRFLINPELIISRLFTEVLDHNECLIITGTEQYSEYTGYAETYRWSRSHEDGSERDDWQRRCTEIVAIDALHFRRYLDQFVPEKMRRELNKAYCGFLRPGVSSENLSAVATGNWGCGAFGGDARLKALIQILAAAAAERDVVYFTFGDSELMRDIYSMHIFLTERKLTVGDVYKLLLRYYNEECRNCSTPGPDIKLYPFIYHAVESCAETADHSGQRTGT

On to `CC(=O)NCc1cc(S(=O)(=O)NC2(C)CC2)cc2c(=O)n(Cc3cnn(C)c3)c(=O)[nH]c12` [Example 428, N-[[6-[(1-Methylcyclopropyl)sulfamoyl]-3-[(1-methylpyrazol-4-yl)methyl]-2,4-dioxo-1H-quinazolin-8-yl]methyl]acetamide], for which the negative logarithm of the IC50 (pIC50) in the experiment on PARG in HeLa cell line (setting [1]) was 4.57; at Human Full Length PARG (read-out: PARG Biochem IC50) it was 6.31.
In the case of `COCCCn1c(=O)n(Cc2cc(C)no2)c(=O)c2cc(S(=O)(=O)NC3(CF)CC3)ccc21` [Example 525, N-[1-(Fluoromethyl)cyclopropyl]-1-(3-methoxypropyl)-3-[(3-methylisoxazol-5-yl)methyl]-2,4-dioxo-quinazoline-6-sulfonamide], the pIC50 in the experiment with PARG in HeLa cell line (setting [2]) was 6.50; on Human Full Length PARG (read-out: PARG Biochem IC50) it was 6.77.
Regarding `Cc1cc(Cn2c(=O)c3cc(S(=O)(=O)NC4(C)CC4)ccc3n(CC3COC3)c2=O)on1` [Example 305], the values for the pIC50 in the experiment with PARG in HeLa cell line (setting [3]) and at Human Full Length PARG (setting [4]) were 6.49 and 6.47, respectively.
With `CNCCCn1c(=O)n(Cc2cc(C)no2)c(=O)c2cc(S(=O)(=O)NC3(C)CC3)ccc21` [Example 250], the pIC50 in the experiment on PARG in HeLa cell line (setting [5]) is 6.48; at Human Full Length PARG (setting [4]), 6.49.
As for `Cn1cc(Cn2c(=O)[nH]c3ccc(S(=O)(=O)NC4(C(F)F)CC4)cc3c2=O)cn1` [Example 456, N-[1-(Difluoromethyl)cyclopropyl]-3-[(1-methylpyrazol-4-yl)methyl]-2,4-dioxo-1H-quinazoline-6-sulfonamide], the values for the pIC50 in the experiment on PARG in HeLa cell line (setting [2]) and on Human Full Length PARG (read-out: PARG Biochem IC50) were 5.25 and 5.39, respectively.
`Cc1ccc(Cn2c(=O)n(Cc3cnn(C)c3)c(=O)c3cc(S(=O)(=O)NC4(CF)CC4)ccc32)nc1` [Example 537, N-[1-(Fluoromethyl)cyclopropyl]-3-[(1-methylpyrazol-4-yl)methyl]-1-[(5-methyl-2-pyridyl)methyl]-2,4-dioxo-quinazoline-6-sulfonamide]: the pIC50 with PARG in HeLa cell line (setting [1]) is 6.74; at Human Full Length PARG (read-out: PARG Biochem IC50), 6.72.
Turning to `CCn1c(=O)n(Cc2cc(C)no2)c(=O)c2cc(S(=O)(=O)NC3(CF)CC3)ccc21` [Example 520, 1-Ethyl-N-[1-(fluoromethyl)cyclopropyl]-3-[(3-methylisoxazol-5-yl)methyl]-2,4-dioxo-quinazoline-6-sulfonamide], the pIC50 in the experiment with PARG in HeLa cell line (setting [2]) was 7.04; at Human Full Length PARG (read-out: PARG Biochem IC50) it was 6.79.
For `Cn1c(=O)n(Cc2ccnnc2)c(=O)c2cc(S(=O)(=O)NC3(C)CC3)ccc21` [Example 446, 1-Methyl-N-(1-methylcyclopropyl)-2,4-dioxo-3-(pyridazin-4-ylmethyl)quinazoline-6-sulfonamide], the pIC50 was 4.72 in the experiment with PARG in HeLa cell line (setting [1]) and 4.87 at Human Full Length PARG (read-out: PARG Biochem IC50).
As for `Cn1cc(Cn2c(=O)c3cc(S(=O)(=O)NC4(CF)CC4)ccc3n(CC3CCC3)c2=O)cn1` [Example 461, 1-(Cyclobutylmethyl)-N-[1-(fluoromethyl)cyclopropyl]-3-[(1-methylpyrazol-4-yl)methyl]-2,4-dioxo-quinazoline-6-sulfonamide], the pIC50 with PARG in HeLa cell line (setting [1]) is 7.52; at Human Full Length PARG (read-out: PARG Biochem IC50) it was 7.41.
On the same counts, the results for `Cn1c(=O)n(Cc2cnsc2)c(=O)c2cc(S(=O)(=O)NC3(CF)CC3)ccc21` [Example 494, N-[1-(Fluoromethyl)cyclopropyl]-3-(isothiazol-4-ylmethyl)-1-methyl-2,4-dioxo-quinazoline-6-sulfonamide] are 5.96 and 5.90.
With `Cn1cc(Cn2c(=O)c3cc(S(=O)(=O)NC4(C)CC4)ccc3n(CC3CCCO3)c2=O)cn1` (centres unmarked) [Example 258], the pIC50 in the experiment with PARG in HeLa cell line (setting [5]) was 6.88; at Human Full Length PARG (setting [4]), 6.77.
In the case of `Cn1cc(Cn2c(=O)c3cc(S(=O)(=O)NC4(CF)CC4)ccc3n(CC3(CO)CC3)c2=O)cn1` [Example 570, N-[1-(Fluoromethyl)cyclopropyl]-1-[[1-(hydroxymethyl)cyclopropyl]methyl]-3-[(1-methylpyrazol-4-yl)methyl]-2,4-dioxo-quinazoline-6-sulfonamide], the pIC50 was 6.62 with PARG in HeLa cell line (setting [1]) and 6.90 on Human Full Length PARG (read-out: PARG Biochem IC50).
On to `CN(C)CCn1c(=O)n(Cc2cnn(C)c2)c(=O)c2cc(S(=O)(=O)NC3(C)CC3)ccc21` [Example 235], for which the pIC50 in the experiment on PARG in HeLa cell line (setting [3]) was 6.50; on Human Full Length PARG (setting [4]) it was 6.65.
Take `Cc1ncc(Cn2c(=O)c3cc(S(=O)(=O)NC4(C)CC4)ccc3n(C)c2=O)s1` [Example 109]: the pIC50 was 6.54 with PARG in HeLa cell line (setting [5]) and 6.32 at Human Full Length PARG (setting [4]).
With `Cn1cc(Cn2c(=O)c3cc(S(=O)(=O)NC4(CF)CC4)ccc3n(Cc3cccc(C#N)n3)c2=O)cn1` [Example 538, 1-[(6-Cyano-2-pyridyl)methyl]-N-[1-(fluoromethyl)cyclopropyl]-3-[(1-methylpyrazol-4-yl)methyl]-2,4-dioxo-quinazoline-6-sulfonamide], the pIC50 in the experiment on PARG in HeLa cell line (setting [2]) was 6.41; at Human Full Length PARG (read-out: PARG Biochem IC50) it was 6.79.
As for `Cn1cc(Cn2c(=O)c3cc(S(=O)(=O)NC4(C)CC4)ccc3n(CC3CC(C)(C)O3)c2=O)cn1` (centres unmarked) [Example 351], the pIC50 in the experiment on PARG in HeLa cell line (setting [5]) is 6.45; at Human Full Length PARG (setting [4]) it was 6.64.
For `Cc1nnc(Cn2c(=O)[nH]c3ccc(S(=O)(=O)NC4(CF)CC4)cc3c2=O)s1` [Example 601, N-[1-(Fluoromethyl)cyclopropyl]-3-[(5-methyl-1,3,4-thiadiazol-2-yl)methyl]-2,4-dioxo-1H-quinazoline-6-sulfonamide], the pIC50 was 4.87 in the experiment with PARG in HeLa cell line (setting [1]) and 6.15 at Human Full Length PARG (read-out: PARG Biochem IC50).
For the compound `Cc1cnc(Cn2c(=O)n(Cc3cnn(C)c3)c(=O)c3cc(S(=O)(=O)NC4(CF)CC4)ccc32)cn1` [Example 569, N-[1-(Fluoromethyl)cyclopropyl]-1-[(5-methylpyrazin-2-yl)methyl]-3-[(1-methylpyrazol-4-yl)methyl]-2,4-dioxo-quinazoline-6-sulfonamide], the pIC50 with PARG in HeLa cell line (setting [1]) and at Human Full Length PARG (read-out: PARG Biochem IC50) was 6.89 in each case.
Turning to `Cn1cc(Cn2c(=O)[nH]c3c(Br)cc(S(=O)(=O)NC4(C)CC4)cc3c2=O)cn1` [Example 422, 8-Bromo-N-(1-methylcyclopropyl)-3-[(1-methylpyrazol-4-yl)methyl]-2,4-dioxo-1H-quinazoline-6-sulfonamide], the pIC50 in the experiment on PARG in HeLa cell line (setting [1]) was 6.21; at Human Full Length PARG (read-out: PARG Biochem IC50), 6.29.
As for `CN1CCCCC1Cn1c(=O)n(Cc2cnn(C)c2)c(=O)c2cc(S(=O)(=O)NC3(C)CC3)ccc21` (centres unmarked) [Example 238], the results for the pIC50 with PARG in HeLa cell line (setting [5]) and on Human Full Length PARG (setting [4]) were 6.66 and 6.80, respectively.
`Cc1nc(Cn2c(=O)n(Cc3cnn(C)c3)c(=O)c3cc(S(=O)(=O)NC4(CF)CC4)ccc32)co1` [Example 580, N-[1-(Fluoromethyl)cyclopropyl]-1-[(2-methyloxazol-4-yl)methyl]-3-[(1-methylpyrazol-4-yl)methyl]-2,4-dioxo-quinazoline-6-sulfonamide]: the pIC50 in the experiment with PARG in HeLa cell line (setting [1]) is 7.34; at Human Full Length PARG (read-out: PARG Biochem IC50), 7.16.
Take `Cn1cc(Cn2c(=O)c3cc(S(=O)(=O)NC4(C)CC4)ccc3n(CC3CCCCC3)c2=O)cn1` [Example 280]: the pIC50 was 6.99 with PARG in HeLa cell line (setting [5]) and 6.75 at Human Full Length PARG (setting [4]).
`Cc1cc(Cn2c(=O)n(Cc3cnn(C)c3)c(=O)c3cc(S(=O)(=O)NC4(C(F)F)CC4)ccc32)n(C)n1` [Example 459, N-[1-(Difluoromethyl)cyclopropyl]-1-[(2,5-dimethylpyrazol-3-yl)methyl]-3-[(1-methylpyrazol-4-yl)methyl]-2,4-dioxo-quinazoline-6-sulfonamide]: the results for the pIC50 in the experiment on PARG in HeLa cell line (setting [1]) and on Human Full Length PARG (read-out: PARG Biochem IC50) were 5.90 and 6.49, respectively.
Consider `COCCCn1c(=O)n(Cc2cc(C)no2)c(=O)c2cc(S(=O)(=O)NC3(C)CC3)ccc21` [Example 251], for which the pIC50 in the experiment on PARG in HeLa cell line (setting [3]) was 6.75; on Human Full Length PARG (setting [4]), 6.41.
Take `Cn1cc(Cn2c(=O)c3cc(S(=O)(=O)NC4(CF)CC4)ccc3n(Cc3cn(C)nn3)c2=O)cn1` [Example 593, N-[1-(Fluoromethyl)cyclopropyl]-3-[(1-methylpyrazol-4-yl)methyl]-1-[(1-methyltriazol-4-yl)methyl]-2,4-dioxo-quinazoline-6-sulfonamide]: the pIC50 was 6.28 in the experiment on PARG in HeLa cell line (setting [2]) and 6.95 at Human Full Length PARG (read-out: PARG Biochem IC50).
For the compound `Cn1cc(Cn2c(=O)c3cc(S(=O)(=O)NC4(C)CC4)ccc3n(Cc3cnn(C)c3)c2=O)cn1` [Example 328], the pIC50 is 6.94 in the experiment on PARG in HeLa cell line (setting [5]) and 7.32 at Human Full Length PARG (setting [4]).
With `C#CC1(NS(=O)(=O)c2ccc3c(c2)c(=O)n(Cc2cnn(C)c2)c(=O)n3CC2CC2)CC1` [Example 432, 1-(Cyclopropylmethyl)-N-(1-ethynylcyclopropyl)-3-[(1-methylpyrazol-4-yl)methyl]-2,4-dioxo-quinazoline-6-sulfonamide], the pIC50 was 6.58 in the experiment with PARG in HeLa cell line (setting [2]) and 6.31 on Human Full Length PARG (read-out: PARG Biochem IC50).
For the compound `Cn1cc(Cn2c(=O)c3cc(S(=O)(=O)NC4(C)CC4)ccc3n(CC3CCC3)c2=O)cn1` [Example 281], the pIC50 in the experiment with PARG in HeLa cell line (setting [5]) is 7.36; at Human Full Length PARG (setting [4]), 7.12.
For the compound `Cn1cc(Cn2c(=O)c3cc(S(=O)(=O)NC4(C)CC4)ccc3n(CC3CCCC3)c2=O)cn1` [Example 279], the pIC50 in the experiment on PARG in HeLa cell line (setting [5]) was 7.29; at Human Full Length PARG (setting [4]) it was 6.77.
On the same counts, the results for `Cc1cc(Cn2c(=O)c3cc(S(=O)(=O)NC4(C)CC4)ccc3n(CC3CCOCC3)c2=O)on1` [Example 321] are 6.71 and 6.86.
For the compound `C#CCn1c(=O)n(Cc2cc(C)no2)c(=O)c2cc(S(=O)(=O)NC3(C)CC3)ccc21` [Example 198], the negative logarithm of the IC50 (pIC50) with PARG in HeLa cell line (setting [5]) was 7.12; at Human Full Length PARG (setting [4]) it was 6.98.

The values are drawn from patent US10239843B2 (CANCER RESEARCH TECHNOLOGY LIMITED, priority 2014, dated 2019).
